Measurements as given in BindingDB's records for doi:10.1016/s0028-3908(96)00054-8 (National Institute of Diabetes, Digestive and Kidney …, 1996).

Key:
[1] = biological target: Gamma-aminobutyric acid receptor subunit alpha-6 (Rattus norvegicus, UniProt P30191)
[2] = biological target: Gamma-aminobutyric acid receptor subunit alpha-4 (Rattus norvegicus, UniProt P28471)
Chain of Gamma-aminobutyric acid receptor subunit alpha-4 (P28471 whole entry): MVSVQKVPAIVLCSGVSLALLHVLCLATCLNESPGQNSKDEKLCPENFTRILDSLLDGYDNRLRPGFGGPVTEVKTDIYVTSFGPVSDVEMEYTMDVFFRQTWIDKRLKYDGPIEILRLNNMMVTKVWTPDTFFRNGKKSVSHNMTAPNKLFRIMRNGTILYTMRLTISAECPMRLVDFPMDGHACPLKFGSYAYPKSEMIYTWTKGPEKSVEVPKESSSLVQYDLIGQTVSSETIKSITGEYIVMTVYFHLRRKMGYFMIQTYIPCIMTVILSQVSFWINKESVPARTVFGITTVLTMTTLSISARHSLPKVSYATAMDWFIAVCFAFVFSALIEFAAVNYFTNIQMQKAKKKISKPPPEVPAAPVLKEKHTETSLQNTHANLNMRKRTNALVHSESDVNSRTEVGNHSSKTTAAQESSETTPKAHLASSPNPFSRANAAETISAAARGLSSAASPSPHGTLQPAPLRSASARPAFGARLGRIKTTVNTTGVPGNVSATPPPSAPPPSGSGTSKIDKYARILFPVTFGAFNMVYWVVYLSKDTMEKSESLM

Chain of Gamma-aminobutyric acid receptor subunit alpha-6 (P30191 whole entry): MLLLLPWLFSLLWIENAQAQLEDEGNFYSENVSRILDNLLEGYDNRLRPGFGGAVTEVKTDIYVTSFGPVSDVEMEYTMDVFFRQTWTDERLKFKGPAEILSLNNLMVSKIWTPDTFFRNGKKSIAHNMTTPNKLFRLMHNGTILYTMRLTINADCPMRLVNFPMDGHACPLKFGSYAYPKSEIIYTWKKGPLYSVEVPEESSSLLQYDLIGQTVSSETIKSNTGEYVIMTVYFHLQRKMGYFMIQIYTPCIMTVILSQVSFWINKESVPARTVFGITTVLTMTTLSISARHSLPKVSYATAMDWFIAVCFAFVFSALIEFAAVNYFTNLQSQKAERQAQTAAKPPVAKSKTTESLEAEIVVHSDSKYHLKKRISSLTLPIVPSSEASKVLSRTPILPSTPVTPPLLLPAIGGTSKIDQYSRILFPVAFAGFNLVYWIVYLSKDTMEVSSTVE

Compound | Ki [1] [µM] | Ki [2] [µM]
O=c1c2cnc3ccccc3c2[nH]n1-c1ccccc1 | 0.0343 | 0.008
CN1Cc2c(C(=O)OC(C)(C)C)ncn2-c2ccc(Cl)cc2C1=O | 0.0082 | 0.0095
CN1Cc2c(C(=O)OC(C)(C)C)ncn2-c2ccc(N=[N+]=[N-])cc2C1=O | 0.0053 | 0.0052
COC(=O)c1cc2c(cn1)[nH]c1ccccc12 | 2.02 | 0.436
CCOC(=O)c1cc2c(cn1)[nH]c1ccccc12 | 2.62 | –
CC(C)(C)OC(=O)c1cc2c(cn1)[nH]c1ccccc12 | 4.75 | 0.897
O=c1c2cnc3ccccc3c2[nH]n1-c1ccc(Cl)cc1 | 0.5 | 0.214
COc1ccc(-n2[nH]c3c(cnc4cc(OC)ccc43)c2=O)cc1 | 0.023 | 0.0116
COc1ccc2ncc3c(=O)n(-c4ccccc4)[nH]c3c2c1 | 0.0745 | 0.0225
COc1ccc(-n2[nH]c3c(cnc4ccccc43)c2=O)cc1 [2-(4-Methoxy-phenyl)-2,5-dihydro-pyrazolo[4,3-c]quinolin-3-one (CGS 9895)] | 0.0384 | 0.0068
CCc1ccc2c(c1)C(=O)N(C)Cc1c(C(=O)OC(C)(C)C)ncn1-2 [DM 286] | 0.0135 | 0.01
CN1Cc2c(C(=O)OC(C)(C)C)ncn2-c2ccc(OCc3ccccc3)cc2C1=O [DM-236] | 1.59 | 0.188
CCc1c(C(=O)OC)ncc2[nH]c3cc(OC)c(OC)cc3c12 [NSC_104999] | 0.121 | 0.0385
CCOC(=O)c1ncc2[nH]c3ccc(OCc4ccccc4)cc3c2c1COC [NSC_121926] | > 10 | > 10
CCOC(=O)c1ncc2[nH]c3cccc(OCc4ccccc4)c3c2c1COC [NSC_123700] | 1.2 | 0.573
CCOC(=O)c1ncn2c1CN(C)C(=O)c1cc(N=[N+]=[N-])ccc1-2 [RO-154513] | 0.0053 | –
CN1Cc2c(C(=O)OC(C)(C)C)ncn2-c2ccsc2C1=O [Ro-19-4603] | 0.0036 | 0.006
CCOC(=O)c1ncn2c1CN(C)C(=O)c1cc(F)ccc1-2 [ethyl 12-fluoro-8-methyl-9-oxo-2,4,8-triazatricyclo[8.4.0.0^{2,6}]tetradeca-1(14),3,5,10,12-pentaene-5-carboxylate] | – | 0.118
